How the values of this experiment were obtained:
Effects on the bleeding time of the conventional clopidogrel hydrogen sulfate obtained in Comparative Example 1 and the inventive clopidogrel 2-naphthalenesulfonate and clopidogrel 1,5-naphthalenedisulfonate monohydrate obtained in Examples 1 and 2, respectively, were tested using rat in accordance with the standard method (see Dejana E & Villa S, Thromb. Haemostas. 48: 108-111, 1982). The bleeding time is an index representing the extent of thrombus formed by platelet aggregation and tests were performed using male and female rats.
Forty 11 to 12-weeks old male and female Sprague-Dawley rats (average weight: 270±25 g) were divided into four groups each consisting of five male rats and five female rats, and the male rats of the first group were each orally administered with 5.0 mg/kg of clopidogrel hydrogen sulfate (3.83 mg/kg as clopidogrel) and the female rats of the first group were each orally administered with 2.5 mg/kg (1.92 mg/kg as clopidogrel). For the second group, the male and female rats were orally each administered with 6.30 mg/kg and 3.15 mg/kg of clopidogrel 2-naphthalenesulfonate, respectively, and for the third group, the male and female rats were each orally administered with 5.65 mg/kg and 2.83 mg/kg of clopidogrel 1,5-naphthalenedisulfonate monohydrate, respectively. The drug was orally administered in the form of 1% DMSO solution in an amount in volume of 10 ml/kg body weight. As a comparison, only 1% DMSO solution was administered to the last group of rats.
After fixing an unanesthetized rat with an experimental holder, the tail of the rat was pierced at a position of 1.5 cm from the end of tail using a need of 26 G×½, 0.45×13 mm at a depth of 1 mm. The time of bleeding to cease was measured with absorbing the bleeding blood on a filter paper every 10 second.

[1] abbreviates: Female Sprague-Dawley rats, oral dose corresponding to 1.92 mg/kg of clopidogrel.
The mark [2] stands for this setting: Male Sprague-Dawley rats, oral dose corresponding to 3.83 mg/kg of clopidogrel.

Counter-ions that a name gives are not always drawn. Like-named read-outs stand apart in the source and are kept apart here.

Take `COC(=O)[C@H](c1ccccc1Cl)N1CCc2sccc2C1` [1,5-Naphthalenedisulfonate monohydrate, Clopidogrel 1,5-naphthalenedisulfonate Monohydrate]: the Bleeding time worked out at 152.5 ± 3.5 s (Female Sprague-Dawley rats, oral dose corresponding to 1.92 mg/kg of clopidogrel, Monohydrate) and 163 ± 5.8 s (Male Sprague-Dawley rats, oral dose corresponding to 3.83 mg/kg of clopidogrel, Monohydrate).

Regarding `COC(=O)[C@H](c1ccccc1Cl)N1CCc2sccc2C1` [Hydrogen sulfate, Clopidogrel Hydrogen Sulfate, reference compound], the Bleeding time was determined as 127.5 ± 10.6 s under setting [1] and 135 ± 8.7 s under setting [2].

Consider `COC(=O)[C@H](c1ccccc1Cl)N1CCc2sccc2C1` [2-Naphthalenesulfonate, Clopidogrel 2-naphthalenesulfonate], for which the Bleeding time reads like this: under setting [1], 157 ± 10.6 s; under setting [2], 190 ± 5.0 s.

Values taken from patent publication US7470707B2, “Crystalline monohydrate clopidogrel naphthalenedisulfonate and process of preparation” (Hanmi Pharm. Co., Ltd, priority 2004, dated 2008).
